Values joined by “and” are separate entries in the source; they are usually repeats but may differ in a detail not shown here. Identical values can stand only once. Inconclusive results and toxic doses are left out. Rule for the calls: active = survival T/C of 150% or more; inactive = T/C below 125% in these data.
Tested on: P388 leukemia ip, CD2F1 mice, survival T/C
Assay: NCI In Vivo Anticancer Drug Screen. Data for tumor model P388 Leukemia (intraperitoneal) in CD2F1 (CDF1) mice
Details: endpoint: median survival time, higher = longer survival
In short: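 Mice carrying the transplanted tumor received test compound or vehicle. Survival was recorded in each group, and the value is the treated-group measurement divided by that of the vehicle-treated control group.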

[1] = dose: 60.0 mg/kg/injection, schedule: Q01DX005 (ip), vehicle: saline with Tween-80
[2] = dose: 120.0 mg/kg/injection, schedule: Q01DX005 (ip), vehicle: saline with Tween-80
[3] = dose: 240.0 mg/kg/injection, schedule: Q01DX005 (ip), vehicle: saline with Tween-80
[4] = dose: 50.0 mg/kg/injection, schedule: Q01DX009 (ip), vehicle: saline with Tween-80
[5] = dose: 100.0 mg/kg/injection, schedule: Q01DX009 (ip), vehicle: saline with Tween-80
[6] = dose: 200.0 mg/kg/injection, schedule: Q01DX009 (ip), vehicle: saline with Tween-80
[7] = dose: 50.0 mg/kg/injection, schedule: Q01DX005 (ip), vehicle: Klucel (hydroxypropylcellulose) (HPC)
[8] = dose: 100.0 mg/kg/injection, schedule: Q01DX005 (ip), vehicle: Klucel (hydroxypropylcellulose) (HPC)
[9] = dose: 200.0 mg/kg/injection, schedule: Q01DX005 (ip), vehicle: Klucel (hydroxypropylcellulose) (HPC)

Measured: T/C

Nc1nnc(-c2ccccc2S)o1
inactive: [1] 103 % of control | [2] 108 % of control | [3] 110 % of control

O=C(c1ccccc1)c1ccccc1NCC(O)COc1ccc(Cl)cc1C(=O)c1ccccc1 (stereo not drawn)
inactive: [1] 91 % of control and 96 % of control | [2] 95 % of control | [3] 88 % of control and 90 % of control

NC1(P(=O)(O)O)CCCCC1
inactive: [4] 116 % of control | [5] 111 % of control | [6] 111 % of control

COc1nc2c(c(O)cn2C2OCC(OC(C)=O)C(OC(C)=O)C2OC(C)=O)c(=O)n1C (stereo not drawn)
inactive: dose: 100.0 mg/kg/injection, schedule: Q01DX001 (ip), vehicle: saline with Tween-80 106 % of control | dose: 200.0 mg/kg/injection, schedule: Q01DX001 (ip), vehicle: saline with Tween-80 92 % of control | dose: 400.0 mg/kg/injection, schedule: Q01DX001 (ip), vehicle: saline with Tween-80 99 % of control

COc1ccccc1/C=C(/C)[N+](=O)[O-]
inactive: dose: 10.0 mg/kg/injection, schedule: Q01DX010 (ip), vehicle: saline 109 % of control | dose: 14.0 mg/kg/injection, schedule: Q01DX010 (ip), vehicle: saline 90 % of control | dose: 22.0 mg/kg/injection, schedule: Q01DX010 (ip), vehicle: saline 100 % of control | dose: 33.0 mg/kg/injection, schedule: Q01DX010 (ip), vehicle: saline 109 % of control | dose: 50.0 mg/kg/injection, schedule: Q01DX010 (ip), vehicle: saline 100 % of control | dose: 75.0 mg/kg/injection, schedule: Q01DX010 (ip), vehicle: saline 118 % of control

O=C(O)CC(=O)N=c1snc(Nc2ccccc2)n1-c1ccccc1
inactive: dose: 6.25 mg/kg/injection, schedule: Q01DX009 (ip), vehicle: Klucel (hydroxypropylcellulose) (HPC) 101 % of control | dose: 12.5 mg/kg/injection, schedule: Q01DX009 (ip), vehicle: Klucel (hydroxypropylcellulose) (HPC) 102 % of control | dose: 25.0 mg/kg/injection, schedule: Q01DX009 (ip), vehicle: Klucel (hydroxypropylcellulose) (HPC) 99 % of control

Cc1cc(-c2ccc(Oc3ccc(Br)cc3)cc2)n[nH]c1=O
inactive: [7] 99 % of control | [8] 104 % of control | [9] 96 % of control

CN(C)CCC(=O)c1ccccc1
inactive: dose: 50.0 mg/kg/injection, schedule: Q01DX009 (ip), vehicle: saline 104 % of control | dose: 100.0 mg/kg/injection, schedule: Q01DX009 (ip), vehicle: saline 110 % of control

COCCCNC(=O)c1nc2ccccc2c(=O)n1NC(=O)Cc1ccccc1
inactive: dose: 50.0 mg/kg/injection, schedule: Q01DX005 (ip), vehicle: saline with Tween-80 95 % of control | dose: 100.0 mg/kg/injection, schedule: Q01DX005 (ip), vehicle: saline with Tween-80 95 % of control | dose: 200.0 mg/kg/injection, schedule: Q01DX005 (ip), vehicle: saline with Tween-80 95 % of control

CCCCCCC(=O)CC(SCC)c1c(Cl)cccc1Cl (stereo not drawn)
inactive: [4] 89 % of control | [5] 98 % of control | [6] 100 % of control

CC1CN(C(=O)/C=C/C(=O)OC2CCCCC2)C(C)CN1C(=O)/C=C/C(=O)OC1CCCCC1 (stereo not drawn)
inactive: [7] 98 % of control | [8] 94 % of control | [9] 97 % of control

CC1=C(C#N)C(C)(C)C(C#N)=C(C)N1C
inactive: dose: 25.0 mg/kg/injection, schedule: Q01DX009 (ip), vehicle: other 110 % of control | dose: 50.0 mg/kg/injection, schedule: Q01DX009 (ip), vehicle: other 111 % of control | [4] 102 % of control | dose: 100.0 mg/kg/injection, schedule: Q01DX009 (ip), vehicle: other 121 % of control | [5] 98 % of control

Cc1ccc(NC(=O)CCCC(=O)C(C#N)c2c(Cl)cccc2Cl)cc1C (stereo not drawn)
inactive: [1] 114 % of control | [2] 108 % of control | [3] 103 % of control

Source: PubChem BioAssay AID330 (DTP/NCI, 2004)
